Where two headings read alike, the source gives them in different places.
Legend:
M^pro of four alpha-CoVs = conditions: read-out: IC50 values against all four alpha-CoVs
[1] = test system: M^pro of ten high-risk CoVs
HCoV-OC43 M^pro = conditions: read-out: IC50 HCoV-OC43, cited from earlier work
HCoV-HKU1 M^pro = conditions: read-out: IC50 HCoV-HKU1; cited from earlier work
HCoV-NL63 M^pro = conditions: read-out: IC50 HCoV-NL63, cited from earlier work

## Cn1cnc(Cn2c(=O)[nH]/c(=N\c3cc4cn(C)nc4cc3Cl)n(Cc3cc(Cl)c(F)cc3Oc3ncc(C(F)(F)F)s3)c2=O)n1 [Compound 14, (E)-6-((6-chloro-2-methyl-2H-indazol-5-yl)imino)-1-(5-chloro-4-fluoro-2-((5-(trifluoromethyl)thiazol-2-yl)oxy)benzyl)-3-((1-methyl-1H-1,2,4-triazol-3-yl)methyl)-1,3,5-triazinane-2,4-dione]
M^pro of four alpha-CoVs
  IC50: < 0.3 µM

## Cc1cncc(-n2c(=O)[nH]/c(=N\c3cc4cn(C)nc4cc3Cl)n(Cc3cc(C#N)ccc3Sc3ccc(Cl)s3)c2=O)c1 [Compound 24, (E)-3-((6-((6-Chloro-2-methyl-2H-indazol-5-yl)imino)-3-(5-methylpyridin-3-yl)-2,4-dioxo-1,3,5-triazinan-1-yl)methyl)-4-((5-chlorothiophen-2-yl)thio)benzonitrile]
M^pro of four alpha-CoVs
  IC50: < 0.3 µM

## Cn1cc2cc(/N=c3\[nH]c(=O)n(Cc4ccc[nH]c4=O)c(=O)n3Cc3cc(Cl)c(F)cc3Oc3ccc(C#N)s3)c(Cl)cc2n1 [Compound 25, (E)-5-(4-chloro-2-((6-((6-chloro-2-methyl-2H-indazol-5-yl)imino)-2,4-dioxo-3-((2-oxo-1,2-dihydropyridin-3-yl)methyl)-1,3,5-triazinan-1-yl)methyl)-5-fluoro-phenoxy)thiophene-2-carbonitrile]
M^pro of four alpha-CoVs
  IC50: < 0.6 µM
[1]; read-out: IC50 against ten high-risk CoVs
  IC50: < 0.6 µM
[1]; read-out: IC50 values for six of the ten CoVs
  IC50: < 0.1 µM

## Cn1cnc(Cn2c(=O)[nH]/c(=N\c3cc4cn(C)nc4cc3Cl)n(Cc3cc(F)c(F)cc3F)c2=O)n1 [S-217622 (1)]
HCoV-OC43 M^pro; reported compound
  IC50: […]
HCoV-HKU1 M^pro
  IC50: […]
HCoV-NL63 M^pro; reported compound
  IC50: […]
